Results from patent US20250057821A1, “METHODS OF TREATING MYELOID MALIGNANCIES USING BCL-2 INHIBITOR” (BeiGene Switzerland GmbH, priority 2022, published 2025).

Columns and labels:
[1] = system: patients with AML; assay: Clinical study: antileukemic activity of Compound A in combination with azacitidine in patients with AML; assay type: in vivo, human; details: for CR / CR+CRh: 80 mg x 10 day cohort (n=17); for CR/CRh: in combination with azacitidine 75 mg/m2 x 7 days, data cutoff 5 Sep. 2022
Description: The clinical study was conducted to evaluate the combination of Compound A and azacitidine in patients with myeloid malignancies, including acute myeloid leukemia (AML) (either treatment-naïve [TN] unfit for intensive induction chemotherapy or relapsed/refractory [R/R]), myelodysplastic syndrome (MDS), or MDS/myeloproliferative neoplasm (MPN). Patients with AML who were treatment-naive unfit for intensive chemotherapy or who are relapsed/refractory were enrolled into the AML cohorts; and patients with myelodysplastic syndrome (MDS) or MDS/myeloproliferative neoplasm (MPN) who were treatment-naïve with high-risk disease or who were relapsed/refractory were enrolled into the MDS cohorts. The AML cohorts enrolls patients with treatment-naive (TN) AML who are unfit for intensive chemotherapy and relapsed/refractory (R/R) AML. The treatment cycles are of 28 days for all AML cohorts, unless recommended otherwise by the Safety Monitoring Committee (SMC). Part 1 AML (Dose Regimen Finding; N≈18 to 36, i.e., a minimum of 6 and a maximum of 12/cohort) studied the safety and tolerability of different dose regimens of Compound A in combination with a fixed dose of azacitidine at 75 mg/m^2 for 7 days. After 3 patients have completed the dose-limiting toxicities (DLT) window, the SMC reviewed all available data and considered the probability of DLT rate to be >20% and recommended whether or not to enroll additional patients (ie, up to 12). If no additional patients were required, the SMC would recommend whether or not to open a subsequent dose regimen in Part 1 and whether to open the dose regimen for Part 2 expansion. […] The window to assess dose-limiting toxicity (DLT) is up to Day 28 for nonhematologic toxicities and Day 42 or initiation of Cycle 2 for hematologic toxicities. The AML Part 1 dose regimen finding cohorts are as follows: • A) Compound A 40 mg daily×10 days with azacitidine (Ramp-up dosing of Compound A: 5 mg, 10 mg, 20 mg, 40 mg) • B) Compound A 80 mg daily×10 days with azacitidine (Ramp-up dosing of Compound A: 10 mg, 20 mg, 40 mg, 80 mg) • C) Compound A 160 mg daily×10 days with azacitidine (Ramp-up dosing of Compound A: 20 mg, 40 mg, 80 mg, 160 mg) • D) Compound A 160 mg daily×28 days with azacitidine (Ramp-up dosing of Compound A: 20 mg, 40 mg, 80 mg, 160 mg) • E) Compound A 320 mg daily×21 days with azacitidine (Ramp-up dosing of Compound A: 40 mg, 80 mg, 160 mg, and 320 mg) • F) Compound A 320 mg daily×28 days with azacitidine (Ramp-up dosing of Compound A: 40 mg, 80 mg, 160 mg, and 320 mg) In all Part 1 AML cohorts and the Part 2 cohort receiving the 28-day dose regimen, the initial dose of azacitidine is given 1 day prior to administration of Compound A (designated as Day 0) to compare baseline PK samples of azacitidine monotherapy with azacitidine in combination with Compound A, which starts on Day 1. In the subsequent cycles and all remaining cohorts, azacitidine administration start on Day 1 concurrently with Compound A. Dosing schema in Part I AML is shown in FIG. 1. Part 2 AML (Safety Expansion; N≈60) treated up to the cohorts each consisting of approximately 10 patients with dose regimens as defined in Part 1 and recommended by the SMC to proceed to Part 2. Part 2 of the study determined safety and antileukemic activity in a larger number of patients with a longer follow-up at dose regimens that were declared tolerable with early signs of activity in Part 1. At a given time, more than one dose regimen may be approved for expansion in Part 2; however, only a single Part 2 AML cohort was to be offered to prospective participants. Patients were preferentially enrolled in any open Part 1 cohort, if applicable. Each Part 2 cohort would continue to enroll up to 10 patients; this would include any additional patients enrolled in Part 1 but not needed for the initial SMC safety review of that cohort. […]

[2] = system: patients with AML or MDS or MDS/MPN; assay: Clinical study: safety and tolerability of Compound A in combination with azacitidine; assay type: in vivo, human; details: treatment of AML or MDS or MDS/MPN, as of 4 Feb. 2023, 97 patients
Description: The clinical study was conducted to evaluate the combination of Compound A and azacitidine in patients with myeloid malignancies, including acute myeloid leukemia (AML) (either treatment-naïve [TN] unfit for intensive induction chemotherapy or relapsed/refractory [R/R]), myelodysplastic syndrome (MDS), or MDS/myeloproliferative neoplasm (MPN). Patients with AML who were treatment-naive unfit for intensive chemotherapy or who are relapsed/refractory were enrolled into the AML cohorts; and patients with myelodysplastic syndrome (MDS) or MDS/myeloproliferative neoplasm (MPN) who were treatment-naïve with high-risk disease or who were relapsed/refractory were enrolled into the MDS cohorts.
Part 1 AML (Dose Regimen Finding; N≈18 to 36, i.e., a minimum of 6 and a maximum of 12/cohort) studied the safety and tolerability of different dose regimens of Compound A in combination with a fixed dose of azacitidine at 75 mg/m^2 for 7 days. After 3 patients have completed the dose-limiting toxicities (DLT) window, the SMC reviewed all available data and considered the probability of DLT rate to be >20% and recommended whether or not to enroll additional patients (ie, up to 12). […]
All Part 1, Part 2, and Part 3 cohorts were assessed for DLTs. […]

[3] = R/R patients, in combination with azacitidine
[4] = TN patients, in combination with azacitidine

**Q.** `CC(C)c1ccccc1[C@@H]1CCCN1C1CC2(CCN(c3ccc(C(=O)NS(=O)(=O)c4ccc(NCC5CCC(C)(O)CC5)c([N+](=O)[O-])c4)c(Oc4cnc5[nH]ccc5c4)c3)CC2)C1` (stereo partly drawn) [Compound A, 2-((1H-pyrrolo[2,3-b]pyridin-5-yl)oxy)-N-((4-((((1r,4r)-4-hydroxy-4-methylcyclohexyl)methyl)amino)-3-nitrophenyl)sulfonyl)-4-(2-((S)-2-(2-isopropylphenyl)pyrrolidin-1-yl)-7-azaspiro[3.5]nonan-7-yl)benzamide] was tested. Which CR [1, 3] did it give?
**A.** Its CR is 50%.

**Q.** And the “CR+CRh” value [1, 3]?
**A.** Its value is 67%.

**Q.** What about the CR [1, 4] of the same molecule?
**A.** The CR was 73%.

**Q.** What about the “CR+CRh” value [1, 4] of the same molecule?
**A.** The value was 73%.

**Q.** And the CR/CRh ([1]; R/R AML patients, all dose cohorts)?
**A.** Its CR/CRh is 50%.

**Q.** And the “CR+CRh in TN AML achieved by the end of cycle 1” value ([1]; TN AML patients, responders by end of cycle 1 out of all CR+CRh responders, in combination with azacitidine)?
**A.** Its value is 15 of 20.

**Q.** What about the CR/CRh ([1]; TN unfit AML patients, all dose cohorts (40, 80, 160 mg x 10 days, 160 mg x 28 days)) of the same molecule?
**A.** The CR/CRh was 65%.

**Q.** What about the safety analysis [2] of the same molecule?
**A.** The safety analysis was “well-tolerated and safe”.
